How the values were obtained:
Format in all cases: cell-based, rat
[1] = test system: hypoxic hippocampal cells; assay: In-vitro model of hypoxic pre-conditioning; details: 2 h hypoxia then treatment at various concentrations, vs positive control hypoxic cells, FIG. 7
Procedure: In-vitro model of hypoxic cells was established by hypoxia chamber, which contain 5% carbon dioxide, 1% oxygen and 94% nitrogen. Isolated cortical and hippocampal cells from 1-2 days old rat pups were cultured in 75 cm flask in DMEM medium, after culturing cells were plated on 96 well plate at 7000-8000 viable cells per well and incubated in hypoxia chamber for 2 hour at 37° C. for hypoxic conditioning or oxygen deprivation. Following hypoxic shock, medium was replaced with fresh complete medium. Only cells without hypoxia were kept in normal condition as a control group while untreated hypoxic cells were kept as a positive control cells. Following two hours hypoxia the treatment of isoxylitones at various doses was given to hypoxic cells and MTT assay was used to determine the viability of cells in all treated and control cells. The absorbance of the plate was read by spectrophotometer at 570 nm wavelength.

hippocampal (HP) cells = assay: Growth supporting effect on neuronal cultures (phase contrast microscopy); details: FIG. 1
Procedure: (§1) For isolation of hippocampal and cortical neurons, two days old rat pups were sacrificed under sterile conditions. Brain samples were carefully isolated and hippocampal and cortical regions were dissected out and placed in ice-cold PBS supplemented with 1% penicillin-streptomycin. Tissue was chopped in small pieces with a sterile scalpel and washed three times with PBS. Subsequently tissues were digested in typsin-EDTA solution (0.05% of trypsin) for 7 minutes at 37° C. and 5% CO2 in a humidified chamber. After typsinisation, cells were washed three times in Dulbecco's Modified Eagle's Medium (DMEM) media containing 5% FBS and finally triturated using flame-polished Pasteur pipette to prepare dissociated cell suspension. The cell suspensions were then centrifuged at 1200 rpm for 4 minutes, supernatants were discarded and cell pellets were re-suspended in 1 mL complete media to find out the cell count and viability. Cells were finally cultured in DMEM (high glucose), supplemented with 10% fetal bovine serum (FBS), 1% L-Glutamine, 1% penicillin/streptomycin (10,000 U/mL and 10 mg/mL, resp.), and 1% sodium pyruvate. The culture flasks (75 cm^2) were then incubated at 37° C. with 5% CO2. Cells were examined daily for any change in morphology or contamination. Media was changed twice or thrice weekly. All cell work was done in a tissue culture hood under sterile conditions.
(§2) To evaluate the growth supporting effect of isoxylitones the hippocampal, cortical and co-cultured cells were plated in 6-well plates and treated with 25 μg/mL, 50 μg/mL, 75 μg/mL and 150 μg/mL doses of isoxylitones. Cells with no treatment were set as a control. The plates were incubated for 24 and 72 hrs in a humidified chamber at 37° C. in 5% CO2. To assess the morphology of the treated cells, images were captured and digitalized with Nikon TE-2000 inverted microscope equipped with phase-contrast optics to measure the difference of control group from treated group. The cells were observed carefully in order to check if they maintain their morphological characteristics after treatment with the compound. The doses which supported the maximum proliferation were used for proliferation assays i.e., AlamarBlue and BrdU assay.

cortical (CTX) cells = assay: as above; details: cortical cells treated for 24 h, FIG. 1
Procedure: as §1, §2

hypoxic cortical cells = assay: In-vitro model of hypoxic pre-conditioning; details: 2 h hypoxia then treatment at various concentrations, vs positive control hypoxic cells, FIG. 7
[2] = test system: co-cultured cortical (CTX-CoCul) cells; assay: Growth supporting effect on co-cultures with BMSCs (phase contrast microscopy); details: 24 h, FIG. 2
Procedure: (§3) Wistar rats (150-200 gm) were used to isolate bone marrow (BM). Rats were sacrificed and their femurs were removed aseptically. The bone marrow (BM) was flushed from the shaft of the bone by clipping of the epiphysial ends and flushing using a 26-gauge needle with ˜2 ml of Dulbecco's Modified Eagle's medium (DMEM) supplemented with 5% FBS, 1% penicillin/streptomycin solution, 1% sodium pyruvate and L-glutamine. The BM was then centrifuged for 8 minutes at 1000 rpm. Following centrifugation, cell pellet was collected and 1 ml of fresh DMEM was added. The cell viability was checked using trypan blue exclusion method. The cells were then divided into three equal parts. One part was co-cultured with freshly isolated hippocampal cells in T75 cm^2 flask, 2nd with freshly isolated cortical cells and the third portion (BM cells only) was cultured as a control. The cell density for co-cultures was set at 140,000 cells/ml for each type of culture. The cultured flasks were then incubated at 37° C. and 5% CO2. After 4-5 days, floating hematopoietic cells and dead debris/tissues of hippocampus and cortex were removed and bone marrow stromal cells (BMSCs) were recovered due to their tendency to adhere. Medium was replaced after every 3 to 4 days till cells became 80-90% confluent.
as §2

[3] = test system: co-cultured hippocampal (HP-CoCul) cells; assay: as above; details: 24 h, FIG. 2
Procedure: as §3, §2

[4] = hippocampal cells treated for 24 h

SMILES: CC(=O)C=C1C=C(C)CC(C)(C)C1 (mixture of isomers) [isoxylitones]
- recovery of hypoxic cells (phase-contrast morphology) [1]: Recovery of hypoxic cells clearly observed
- effect on morphology (hippocampal (HP) cells; [4]): without any significant change in morphology
- proliferation (phase contrast photomicrographs) (hippocampal (HP) cells; [4]): increased proliferation
- proliferation of treated hippocampal cells compared to cortical cells (hippocampal (HP) cells; treated for 24 h): higher proliferation as compared to cortical cells
- effect on morphology (cortical (CTX) cells): without any significant change in morphology
- proliferation (phase contrast photomicrographs) (cortical (CTX) cells): increased proliferation
- recovery of hypoxic cells (phase-contrast morphology) (hypoxic cortical cells): Recovery of hypoxic cells clearly observed
- number of proliferating cells [2]: Marked increase
- variation in morphology [2]: no significant variation in the morphology
- number of proliferating cells ([3]; HP-CoCul cells): Marked increase
- variation in morphology ([3]; HP-CoCul cells): no significant variation in the morphology
- rate of proliferation in hippocampus cells as compared to cortical cells ([3]; co-cultured cells): almost double

— patent US11065211B2, “Isoxylitones mediated neurogenesis” (priority 2018, dated 2021)
